Test results from US10993951B2, “Fosfomycin formulation for parenteral administration” (priority 2016, dated 2021).
In brackets after ≈: the same amount, converted by molar mass. Like-named read-outs stand apart in the source and are kept apart here.

Assays:
Assay in all cases: MIC by tube dilution in microtiter plates, stored fosfomycin solution
Assay type in all cases: cell-based
Escherichia coli AG 1215 = conditions: read-out: minimal inhibitory concentration (MIC)
[1] = system: Staphylococcus hominis AG 1115; conditions: read-out: minimal inhibitory concentration (MIC)
Description: (§1) The objective of the present investigation was to find out whether the antimicrobial activity of fosfomycin with a pH suitable for intravenous administration is maintained in a solvent suitable for intravenous use. For this, fosfomycin disodium (14.5 mmol sodium/g) and succinic acid were used to adjust the pH (0.025 grams of succinic acid per gram of fosfomycin).
(§2) A stock solution of 4 g of fosfomycin disodium and succinic acid (0.025 grams of succinic acid per gram of fosfomycin, corresponding to about 3 g of fosfomycin) in 10 ml distilled water was prepared and divided into 5 cryotubes at 2 ml each, and the solution was exposed at different temperatures as follows:
(§3) Aliquots of 2 ml of the sample were stored at −80° C., at refrigerator temperature (2-8° C.), at room temperature (20-25° C.), and at 45-65° C. until the test end. Another 2 ml of the stock solution were stored at refrigerator temperature (2-8° C.) and autoclaved before the tests at 125° C. for 30 minutes. After that, all samples were tested for their antimicrobioal activity.
(§4) To determine the antimicrobial activity of fosfomycin, the minimal inhibitory concentration (MIC) of the 4 mentioned bacteria strains was determined by a tube dilution method in microtiter plates using Mueller-Hinton broth. For the inoculation of the microtiter plates, the inoculum was adjusted to 1.5×104 germs/ml. The evaluation was made after 24 hours of incubation at 37° C.
(§5) Samples were taken, starting with 2,000 μg/ml test substance, diluted by a factor 2. Serial dilutions of 2,000 μg/ml to […] were prepared.

[2] = system: Staphylococcus aureus ATTC 49775; conditions: read-out: minimal inhibitory concentration (MIC)
Description: as §1, §2, §3, §4, §5

[3] = system: Staphylococcus aureus ATTC 33592; conditions: ATTC33592, 0 h, storage period 0 days, read-out: minimal inhibitory concentration (MIC)
Description: as §1, §2, §3, §4, §5

C[C@@H]1O[C@@H]1P(=O)(O)O [Fosfomycin, fosfomycin]
MIC (Escherichia coli AG 1215; AG1215, 648 h, storage temp. 4-8 °C, storage period 27 days): 62.5 µg/mL (≈ 453 µM)
MIC (Escherichia coli AG 1215; AG1215, storage temp. 4-8 °C, storage period 59 days): 62.5 µg/mL (≈ 453 µM)
MIC (Escherichia coli AG 1215; AG1215, storage temp. 4-8 °C, storage period 64 days): 15.6 µg/mL (≈ 113 µM)
MIC ([1]; AG1115, 125 °C (refrigerator storage, autoclaved 30 minutes before tests), storage period 27 days): 15.6 µg/mL (≈ 113 µM)
MIC ([1]; AG1115, 125 °C (refrigerator storage, autoclaved 30 minutes before tests), storage period 31 days): 7.8 µg/mL (≈ 56.5 µM)
MIC ([1]; AG1115, 125 °C (refrigerator storage, autoclaved 30 minutes before tests), storage period 54 days): 7.8 µg/mL (≈ 56.5 µM)
MIC ([1]; AG1115, 125 °C (refrigerator storage, autoclaved 30 minutes before tests), storage period 59 days): 15.6 µg/mL (≈ 113 µM)
MIC ([1]; AG1115, 125 °C (refrigerator storage, autoclaved 30 minutes before tests), storage period 64 days): 31.2 µg/mL (≈ 226 µM)
MIC ([1]; AG1115, 125 °C (refrigerator storage, autoclaved 30 minutes before tests), storage period 92 days): 31.2 µg/mL (≈ 226 µM)
MIC ([1]; AG1115, 648 h, storage temp. 20-25 °C, storage period 27 days): 31.2 µg/mL (≈ 226 µM)
MIC ([1]; AG1115, 648 h, storage temp. 45-65 °C, storage period 27 days): 15.6 µg/mL (≈ 113 µM)
MIC ([1]; AG1115, 648 h, storage temp. −80 °C, storage period 27 days): 7.8 µg/mL (≈ 56.5 µM)
MIC ([1]; AG1115, storage temp. 4-8 °C, storage period 31 days): 7.8 µg/mL (≈ 56.5 µM)
MIC ([1]; AG1115, storage temp. 4-8 °C, storage period 54 days): 7.8 µg/mL (≈ 56.5 µM)
MIC ([1]; AG1115, storage temp. 4-8 °C, storage period 59 days): 15.6 µg/mL (≈ 113 µM)
MIC ([1]; AG1115, storage temp. 20-25 °C, storage period 31 days): 7.8 µg/mL (≈ 56.5 µM)
MIC ([1]; AG1115, storage temp. 20-25 °C, storage period 54 days): 15.6 µg/mL (≈ 113 µM)
MIC ([1]; AG1115, storage temp. 20-25 °C, storage period 59 days): 7.8 µg/mL (≈ 56.5 µM)
MIC ([1]; AG1115, storage temp. 20-25 °C, storage period 64 days): 31.2 µg/mL (≈ 226 µM)
MIC ([1]; AG1115, storage temp. 20-25 °C, storage period 92 days): 62.5 µg/mL (≈ 453 µM)
MIC ([1]; AG1115, storage temp. 45-65 °C, storage period 31 days): 3.9 µg/mL (≈ 28.2 µM)
MIC ([1]; AG1115, storage temp. 45-65 °C, storage period 54 days): 15.6 µg/mL (≈ 113 µM)
MIC ([1]; AG1115, storage temp. 45-65 °C, storage period 59 days): 15.6 µg/mL (≈ 113 µM)
MIC ([1]; AG1115, storage temp. 45-65 °C, storage period 64 days): 15.6 µg/mL (≈ 113 µM)
MIC ([1]; AG1115, storage temp. 45-65 °C, storage period 92 days): 62.5 µg/mL (≈ 453 µM)
MIC ([1]; AG1115, storage temp. −80 °C, storage period 31 days): 7.8 µg/mL (≈ 56.5 µM)
MIC ([1]; AG1115, storage temp. −80 °C, storage period 54 days): 7.8 µg/mL (≈ 56.5 µM)
MIC ([1]; AG1115, storage temp. −80 °C, storage period 59 days): 15.6 µg/mL (≈ 113 µM)
MIC ([1]; AG1115, storage temp. −80 °C, storage period 64 days): 15.6 µg/mL (≈ 113 µM)
MIC ([1]; AG1115, storage temp. −80 °C, storage period 92 days): 15.6 µg/mL (≈ 113 µM)
MIC ([2]; ATTC49775, 0 h, storage temp. 20-25 °C, storage period 0 days): 3.9 µg/mL (≈ 28.2 µM)
MIC ([2]; ATTC49775, 0 h, storage temp. 45-65 °C, storage period 0 days): 7.8 µg/mL (≈ 56.5 µM)
MIC ([2]; ATTC49775, 0 h, storage temp. −80 °C, storage period 0 days): 7.8 µg/mL (≈ 56.5 µM)
MIC ([2]; ATTC49775, 125 °C (refrigerator storage, autoclaved 30 minutes before tests), storage period 0 days): 15.6 µg/mL (≈ 113 µM)
MIC ([2]; ATTC49775, 125 °C (refrigerator storage, autoclaved 30 minutes before tests), storage period 19 days): 7.8 µg/mL (≈ 56.5 µM)
MIC ([2]; ATTC49775, 125 °C (refrigerator storage, autoclaved 30 minutes before tests), storage period 31 days): 7.8 µg/mL (≈ 56.5 µM)
MIC ([2]; ATTC49775, 456 h, storage temp. 20-25 °C, storage period 19 days): 15.6 µg/mL (≈ 113 µM)
MIC ([2]; ATTC49775, 456 h, storage temp. 45-65 °C, storage period 19 days): 7.8 µg/mL (≈ 56.5 µM)
MIC ([2]; ATTC49775, 456 h, storage temp. −80 °C, storage period 19 days): 3.9 µg/mL (≈ 28.2 µM)
MIC ([2]; ATTC49775, storage temp. 20-25 °C, storage period 31 days): 15.6 µg/mL (≈ 113 µM)
MIC ([2]; ATTC49775, storage temp. 45-65 °C, storage period 31 days): 7.8 µg/mL (≈ 56.5 µM)
MIC ([2]; ATTC49775, storage temp. −80 °C, storage period 31 days): 3.9 µg/mL (≈ 28.2 µM)
MIC ([3]; storage temp. 20-25 °C): 7.8 µg/mL (≈ 56.5 µM)
MIC ([3]; storage temp. 45-65 °C): 15.6 µg/mL (≈ 113 µM)
MIC ([3]; storage temp. −80 °C): 15.6 µg/mL (≈ 113 µM)
